From the supplement of paper PMC10307832

Assays:
Test in all cases: relative viability (nuclei count vs DMSO), 5 days (fraction); higher = more cells survive
Obatoclax + Pemetrexed = compound: COC1=CC(c2cc3ccccc3[nH]2)=N/C1=C\c1[nH]c(C)cc1C [Obatoclax] + Nc1nc2[nH]cc(CCc3ccc(C(=O)N[C@@H](CCC(=O)O)C(=O)O)cc3)c2c(=O)[nH]1 [Pemetrexed] (partner 0.2 µM)
Outline: (§1)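 Cells from lung cancer lines were seeded into 1536-well plates and, one day later, dosed by pin tool. Treatments were either a single drug or a fixed dose of an anchor drug with five library-drug doses (not always all listed) in √10 steps. After 5 days, nuclei were stained in a one-step fixation (final 0.05% Triton X-100, 1% formaldehyde, 1 ug/ml Hoechst) and counted on 4× images, and relative viability is the treated-to-vehicle nuclei ratio, as the median of duplicate plates.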

Bortezomib + Phenformin = compound: CC(C)C[C@H](NC(=O)[C@H](Cc1ccccc1)NC(=O)c1cnccn1)B(O)O [Bortezomib] + N=C(N)NC(=N)NCCc1ccccc1 [Phenformin] (partner 250 µM)
Outline: as §1

Obatoclax + Palbociclib = compound: COC1=CC(c2cc3ccccc3[nH]2)=N/C1=C\c1[nH]c(C)cc1C [Obatoclax] + CC(=O)c1c(C)c2cnc(Nc3ccc(N4CCNCC4)cn3)nc2n(C2CCCC2)c1=O [Palbociclib] (partner 0.5 µM)
Outline: as §1

Bortezomib + Navitoclax = compound: CC(C)C[C@H](NC(=O)[C@H](Cc1ccccc1)NC(=O)c1cnccn1)B(O)O [Bortezomib] + CC1(C)CCC(c2ccc(Cl)cc2)=C(CN2CCN(c3ccc(C(=O)NS(=O)(=O)c4ccc(N[C@H](CCN5CCOCC5)CSc5ccccc5)c(S(=O)(=O)C(F)(F)F)c4)cc3)CC2)C1 [Navitoclax] (partner 0.5 µM)
Outline: as §1

Cell Line | relative viability (Obatoclax + Pemetrexed; first compound 0.01 µM) | relative viability (Obatoclax + Pemetrexed; first compound 0.03162 µM) | relative viability (Obatoclax + Pemetrexed; first compound 0.1 µM) | relative viability (Obatoclax + Pemetrexed; first compound 0.3162 µM) | relative viability (Obatoclax + Pemetrexed; first compound 1 µM) | relative viability (Bortezomib + Phenformin; first compound 0.0002 µM) | relative viability (Bortezomib + Phenformin; first compound 0.000632 µM) | relative viability (Bortezomib + Phenformin; first compound 0.002 µM) | relative viability (Bortezomib + Phenformin; first compound 0.006325 µM) | relative viability (Bortezomib + Phenformin; first compound 0.02 µM) | relative viability (Obatoclax + Palbociclib; first compound 0.01 µM) | relative viability (Obatoclax + Palbociclib; first compound 0.03162 µM) | relative viability (Obatoclax + Palbociclib; first compound 0.1 µM) | relative viability (Obatoclax + Palbociclib; first compound 0.3162 µM) | relative viability (Obatoclax + Palbociclib; first compound 1 µM) | relative viability (Bortezomib + Navitoclax; first compound 0.0002 µM) | relative viability (Bortezomib + Navitoclax; first compound 0.000632 µM) | relative viability (Bortezomib + Navitoclax; first compound 0.002 µM) | relative viability (Bortezomib + Navitoclax; first compound 0.006325 µM) | relative viability (Bortezomib + Navitoclax; first compound 0.02 µM)
NCI-H2342 | 0.836 | 0.775 | 0.683 | 0.641 | 0.757 | 0.653 | 0.508 | 0.574 | 0.714 | 0.566 | 0.506 | 0.524 | 0.582 | 0.501 | 0.487 |  |  |  |  | 
HCC-827 | 0.241 | 0.275 | 0.247 | 0.17 | 0.278 | 0.428 | 0.379 | 0.442 | 0.192 | 0.101 | 0.475 | 0.436 | 0.531 | 0.407 | 0.482 | 1.05 | 1.03 | 0.768 | 0.979 | 0.0957
NCI-H322M | 0.683 | 0.609 | 0.632 | 0.655 | 0.625 | 0.807 |  | 0.748 | 0.295 | 0.322 | 0.491 | 0.485 | 0.58 | 0.501 | 0.452 | 1.34 |  | 1.18 | 1.24 | 1.09
ChaGo-K-1 | 0.243 | 0.252 | 0.261 | 0.265 | 0.274 | 0.416 | 0.455 | 0.45 | 0.462 | 0.153 | 0.912 | 0.925 | 0.91 | 0.903 | 0.99 |  |  | 0.964 | 0.307 | 0.2
BEN | 0.852 | 0.534 | 0.44 | 0.618 | 0.762 | 0.258 | 0.266 | 0.264 | 0.259 | 0.174 | 0.467 | 0.477 | 0.429 | 0.462 | 0.44 | 0.0276 | 0.0636 | 0.151 | 0.0617 | 0.0356
NCI-H2347 | 0.399 | 0.419 | 0.37 | 0.392 | 0.38 | 0.493 | 0.512 | 0.594 | 0.298 | 0.257 | 0.388 | 0.406 | 0.393 | 0.489 | 0.413 | 0.513 | 0.847 | 0.651 | 0.197 | 0.193
LOU-NH91 | 0.334 | 0.382 | 0.323 | 0.379 | 0.47 | 0.774 | 0.645 | 0.661 | 0.282 | 0.261 | 0.497 | 0.523 | 0.429 | 0.422 | 0.464 | 0.697 | 0.543 | 0.254 | 0.187 | 0.201
NCI-H2228 | 0.317 | 0.308 | 0.367 | 0.304 | 0.274 | 0.271 | 0.31 | 0.257 | 0.0882 | 0.0761 | 0.609 | 0.792 | 0.573 | 0.525 | 0.401 | 1 | 1.05 | 0.368 | 0.0925 | 0.0601
